In patent US8247211B2, “Glycopeptide antibiotics” (American Cyanamid Company, priority 2001, dated 2012):
Values after ≈ are worked out from the molar mass of the structure shown.

Experiments:
Experiment in all cases: In vitro antibacterial evaluation: minimum inhibitory concentration (MIC), broth dilution method
Type in all cases: cell-based
Staphylococcus sp. = conditions: for MIC Coagulase Negative Staphylococcus (ID-3941): strain ID-3941
In short: (§1)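 Following NCCLS approved standard M7-A2, compounds are serially diluted from 64 to 0.06 μg/mL in Muller-Hinton II […] and inoculated at 5×10^5 CFU/mL; the MIC is the minimum concentration at which growth is inhibited.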

Streptococcus sp. = test system: Streptococcus sp.
In short: as §1

Enterococcus sp. = test system: Enterococcus sp.
In short: as §1

Escherichia coli = test system: Escherichia coli
In short: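 NCCLS M7-A2 broth dilution; Muller-Hinton II […]; 5×10^5 CFU/mL; 64-0.06 μg/mL. MIC = lowest concentration with no growth.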

[1] = strain GC 4543, broth dilution, 18 hours at 35° C.
[2] = strain GC 4546, broth dilution, 18 hours at 35° C.
[3] = strain GC 4547, broth dilution, 18 hours at 35° C.
[4] = strain GC 4548, broth dilution, 18 hours at 35° C.
[5] = strain GC 4549, broth dilution, 18 hours at 35° C.
[6] = strain GC 4551, broth dilution, 18 hours at 35° C.
[7] = broth dilution, 5×10^5 CFU/mL, 18 hours at 35° C.

CC(c1ccccc1)C1NC(=O)CNC(=O)C(CO)NC(=O)C(C(O)C2CNC(=N)N2C2OC(CO)C(O)C(O)C2O)NC(=O)C(C(O)C2CNC(=N)N2)NC(=O)C(Cc2ccc(OC3OC(CO)C(OC4OC(COC(=O)OCc5ccccc5)C(O)C(O)C4O)C(O)C3O)cc2)NC1=O (stereo not drawn) [Example 101a, Cyclo[glycyl-β-methylphenylalanyl-O-[4-O-[6-O-[(phenylmethoxy)carbonyl]hexopyranosyl]-hexopyranosyl]tyrosyl-3-(2-iminoimidazolidin-4-yl)seryl-3-(3-hexopyranosyl-2-iminoimidazolidin-4-yl)serylseryl]]
MIC Staphylococcus aureus (ATCC 29213) (Staphylococcus sp.; strain ATCC 29213): 2 µg/mL (≈ 1.4 µM) | MIC Staphylococcus aureus (GC 1131) (Staphylococcus sp.; strain GC 1131): 4 µg/mL (≈ 2.8 µM) | MIC Staphylococcus aureus (GC 4541) (Staphylococcus sp.; strain GC 4541): 2 µg/mL (≈ 1.4 µM) | MIC Staphylococcus aureus (GC 4542) (Staphylococcus sp.; strain GC 4542): 4 µg/mL (≈ 2.8 µM) | MIC Staphylococcus aureus-SMITH (GC 4543) (Staphylococcus sp.; strain GC 4543, 18 hours at 35° C.): 8 µg/mL (≈ 5.6 µM) | MIC Staphylococcus aureus-SMITH (GC 4543) (Staphylococcus sp.; [1]): 8 µg/mL (≈ 5.6 µM) | MIC Staphylococcus aureus (GC 4544) (Staphylococcus sp.; strain GC 4544): 4 µg/mL (≈ 2.8 µM) | MIC Staphylococcus aureus (GC 4545) (Staphylococcus sp.; strain GC 4545): 4 µg/mL (≈ 2.8 µM) | MIC Staphylococcus haemolyticus (GC 4546) (Staphylococcus sp.; strain GC 4546): 1 µg/mL (≈ 0.7 µM) | MIC Staphylococcus haemolyticus (GC 4546) (Staphylococcus sp.; [2]): 1 µg/mL (≈ 0.7 µM) | MIC Coagulase Negative Staphylococcus (GC 4547) (Staphylococcus sp.; strain GC 4547): 1 µg/mL (≈ 0.7 µM) | MIC Coagulase Negative Staphylococcus (GC 4547) (Staphylococcus sp.; [3]): 1 µg/mL (≈ 0.7 µM) | MIC Coagulase Negative Staphylococcus (GC 4548) (Staphylococcus sp.; strain GC 4548): 1 µg/mL (≈ 0.7 µM) | MIC Coagulase Negative Staphylococcus (GC 4548) (Staphylococcus sp.; [4]): 1 µg/mL (≈ 0.7 µM) | MIC Coagulase Negative Staphylococcus (GC 4549) (Staphylococcus sp.; strain GC 4549): 1 µg/mL (≈ 0.7 µM) | MIC Coagulase Negative Staphylococcus (GC 4549) (Staphylococcus sp.; [5]): 1 µg/mL (≈ 0.7 µM) | MIC Coagulase Negative Staphylococcus (GC 4551) (Staphylococcus sp.; strain GC 4551): 2 µg/mL (≈ 1.4 µM) | MIC Coagulase Negative Staphylococcus (GC 4551) (Staphylococcus sp.; [6]): 2 µg/mL (≈ 1.4 µM) | MIC Coagulase Negative Staphylococcus (ID-3941) (Staphylococcus sp.): 1 µg/mL (≈ 0.7 µM) | MIC Coagulase Negative Staphylococcus (ID-3941) (Staphylococcus sp.; broth dilution, 18 hours at 35° C.): 1 µg/mL (≈ 0.7 µM) | MIC Streptococcus agalactiae (GC 4564) (Streptococcus sp.; [7]): 1 µg/mL (≈ 0.7 µM) | MIC Streptococcus pneumoniae (GC 4565) (Streptococcus sp.; [7]): <0.5 µg/mL | MIC Streptococcus pyogenes (ID-3187) (Streptococcus sp.; [7]): 1 µg/mL (≈ 0.7 µM) | MIC Enterococccus avium (GC 4558) (Enterococcus sp.; [7]): 16 µg/mL (≈ 11.2 µM) | MIC Enterococccus faecalis (ATCC 29212) (Enterococcus sp.; [7]): 16 µg/mL (≈ 11.2 µM) | MIC Enterococccus faecalis (GC 4552) (Enterococcus sp.; [7]): 16 µg/mL (≈ 11.2 µM) | MIC Enterococccus faecalis (GC 4553) (Enterococcus sp.; [7]): 16 µg/mL (≈ 11.2 µM) | MIC Enterococccus faecalis (GC 4554) (Enterococcus sp.; [7]): 16 µg/mL (≈ 11.2 µM) | MIC Enterococccus faecium (GC 2243) (Enterococcus sp.; [7]): 16 µg/mL (≈ 11.2 µM) | MIC Enterococccus faecium (GC 4556) (Enterococcus sp.; [7]): 16 µg/mL (≈ 11.2 µM) | MIC Enterococccus faecium (GC 4557) (Enterococcus sp.; [7]): 2 µg/mL (≈ 1.4 µM) | MIC Enterococcus faecalis (GC 2242) (Enterococcus sp.; [7]): 8 µg/mL (≈ 5.6 µM) | MIC Escherichia coli (ATCC 25922) (Escherichia coli; 5×10^5 CFU/mL, 18 hours at 35° C.): 64 µg/mL (≈ 44.8 µM)

CCCc1ccc(C2OCC3OC(OC4C(CO)OC(Oc5ccc(CC6NC(=O)C(C(C)c7ccccc7)NC(=O)CNC(=O)C(CO)NC(=O)C(C(O)C7CNC(=N)N7C7OC(CO)C(O)C(O)C7O)NC(=O)C(C(O)C7CNC(=N)N7)NC6=O)cc5)C(O)C4O)C(O)C(O)C3O2)cc1 (stereo not drawn) [Example 140, Cyclo[glycyl-β-methylphenylalanyl-O-[4-O-[4,6-O-(4-propylbenzylidene)hexopyranosyl]-hexopyranosyl]tyrosyl-3-(2-iminoimidazolidin-4-yl)seryl-3-(3-hexopyranosyl-2-iminoimidazolidin-4-yl)serylseryl]]
MIC Coagulase Negative Staphylococcus (GC 4547) (Staphylococcus sp.; [7]): <0.5 µg/mL | MIC Coagulase Negative Staphylococcus (GC 4548) (Staphylococcus sp.; [7]): <0.5 µg/mL | MIC Coagulase Negative Staphylococcus (GC 4549) (Staphylococcus sp.; [7]): <0.5 µg/mL | MIC Coagulase Negative Staphylococcus (GC 4551) (Staphylococcus sp.; [7]): <0.5 µg/mL | MIC Coagulase Negative Staphylococcus (GC 6257) (Staphylococcus sp.; [7]): <0.5 µg/mL | MIC Staphylococcus aureus (ATCC 29213) (Staphylococcus sp.; [7]): 1 µg/mL (≈ 0.702 µM) | MIC Staphylococcus aureus (GC 1131) (Staphylococcus sp.; [7]): 1 µg/mL (≈ 0.702 µM) | MIC Staphylococcus aureus (GC 3051) (Staphylococcus sp.; [7]): 1 µg/mL (≈ 0.702 µM) | MIC Staphylococcus aureus (GC 3053) (Staphylococcus sp.; [7]): <0.5 µg/mL | MIC Staphylococcus aureus (GC 4541) (Staphylococcus sp.; [7]): 1 µg/mL (≈ 0.702 µM) | MIC Staphylococcus aureus (GC 4542) (Staphylococcus sp.; [7]): 1 µg/mL (≈ 0.702 µM) | MIC Staphylococcus aureus (GC 4544) (Staphylococcus sp.; [7]): 1 µg/mL (≈ 0.702 µM) | MIC Staphylococcus aureus (GC 4545) (Staphylococcus sp.; [7]): <0.5 µg/mL | MIC Staphylococcus aureus-SMITH (GC 4543) (Staphylococcus sp.; [7]): 1 µg/mL (≈ 0.702 µM) | MIC Staphylococcus haemolyticus (GC 4546) (Staphylococcus sp.; [7]): 1 µg/mL (≈ 0.702 µM) | MIC Staphylococcus aureus (ATCC 29213) (Staphylococcus sp.; strain ATCC 29213, broth dilution, 18 hours at 35° C.): 1 µg/mL (≈ 0.702 µM) | MIC Staphylococcus aureus (GC 1131) (Staphylococcus sp.; strain GC 1131, broth dilution, 18 hours at 35° C.): 1 µg/mL (≈ 0.702 µM) | MIC Staphylococcus aureus (GC 3051) (Staphylococcus sp.; strain GC 3051, broth dilution, 18 hours at 35° C.): 1 µg/mL (≈ 0.702 µM) | MIC Staphylococcus aureus (GC 3053) (Staphylococcus sp.; strain GC 3053, broth dilution, 18 hours at 35° C.): <0.5 µg/mL | MIC Staphylococcus aureus (GC 4541) (Staphylococcus sp.; strain GC 4541, broth dilution, 18 hours at 35° C.): 1 µg/mL (≈ 0.702 µM) | MIC Staphylococcus aureus (GC 4542) (Staphylococcus sp.; strain GC 4542, broth dilution, 18 hours at 35° C.): 1 µg/mL (≈ 0.702 µM) | MIC Staphylococcus aureus-SMITH (GC 4543) (Staphylococcus sp.; [1]): 1 µg/mL (≈ 0.702 µM) | MIC Staphylococcus aureus (GC 4544) (Staphylococcus sp.; strain GC 4544, broth dilution, 18 hours at 35° C.): 1 µg/mL (≈ 0.702 µM) | MIC Staphylococcus aureus (GC 4545) (Staphylococcus sp.; strain GC 4545, broth dilution, 18 hours at 35° C.): <0.5 µg/mL | MIC Staphylococcus haemolyticus (GC 4546) (Staphylococcus sp.; [2]): 1 µg/mL (≈ 0.702 µM) | MIC Coagulase Negative Staphylococcus (GC 4547) (Staphylococcus sp.; [3]): <0.5 µg/mL | MIC Coagulase Negative Staphylococcus (GC 4548) (Staphylococcus sp.; [4]): <0.5 µg/mL | MIC Coagulase Negative Staphylococcus (GC 4549) (Staphylococcus sp.; [5]): <0.5 µg/mL | MIC Coagulase Negative Staphylococcus (GC 4551) (Staphylococcus sp.; [6]): <0.5 µg/mL | MIC Coagulase Negative Staphylococcus (GC 6257) (Staphylococcus sp.; strain GC 6257, broth dilution, 18 hours at 35° C.): <0.5 µg/mL | MIC Streptococcus pneumoniae (ATCC 6301) (Streptococcus sp.; strain ATCC 6301): <0.5 µg/mL | MIC Streptococcus pneumoniae (GC 1894) (Streptococcus sp.; strain GC 1894): <0.5 µg/mL | MIC Streptococcus pyogenes (GC 4563) (Streptococcus sp.; strain GC 4563): <0.5 µg/mL | MIC Streptococcus agalactiae (GC 4564) (Streptococcus sp.; strain GC 4564): <0.5 µg/mL | MIC Streptococcus pneumoniae (GC 4565) (Streptococcus sp.; strain GC 4565): <0.5 µg/mL | MIC Enterococcus faecalis (ATCC 29212) (Enterococcus sp.; strain ATCC 29212): <0.5 µg/mL | MIC Enterococcus faecalis (GC 2242) (Enterococcus sp.; strain GC 2242): <1 µg/mL | MIC Enterococcus faecium (GC 2243) (Enterococcus sp.; strain GC 2243): 1 µg/mL (≈ 0.702 µM) | MIC Enterococcus faecalis (GC 2691) (Enterococcus sp.; strain GC 2691): 1 µg/mL (≈ 0.702 µM) | MIC Enterococcus faecalis (GC 3059) (Enterococcus sp.; strain GC 3059): 1 µg/mL (≈ 0.702 µM) | MIC Enterococcus faecalis (GC 4552) (Enterococcus sp.; strain GC 4552): 1 µg/mL (≈ 0.702 µM) | MIC Enterococcus faecalis (GC 4553) (Enterococcus sp.; strain GC 4553): 1 µg/mL (≈ 0.702 µM) | MIC Enterococcus faecalis (GC 4554) (Enterococcus sp.; strain GC 4554): 1 µg/mL (≈ 0.702 µM) | MIC Enterococcus faecium (GC 4556) (Enterococcus sp.; strain GC 4556): 1 µg/mL (≈ 0.702 µM) | MIC Enterococcus faecium (GC 4557) (Enterococcus sp.; strain GC 4557): 1 µg/mL (≈ 0.702 µM) | MIC Enterococcus avium (GC 4558) (Enterococcus sp.; strain GC 4558): 1 µg/mL (≈ 0.702 µM) | MIC Enterococcus faecalis (GC 6189) (Enterococcus sp.; strain GC 6189): 1 µg/mL (≈ 0.702 µM) | MIC Escherichia coli (ATCC 25922) (Escherichia coli; strain ATCC 25922): 64 µg/mL (≈ 44.9 µM) | MIC Escherichia coli (GC 4559) (Escherichia coli; strain GC 4559): 64 µg/mL (≈ 44.9 µM) | MIC Escherichi coli (GC 4560) (Escherichia coli; strain GC 4560): 1 µg/mL (≈ 0.702 µM)
